Test results from US4186194A (priority 1973, dated 1980).

Columns and labels:
[1] = system: Female Hartley guinea-pigs; assay: Adjuvant activity: rates of antibodies with respect to ovalbumin after injection with incomplete Freund adjuvant and ovalbumin; type: in vivo, guinea-pig; settings: Table 2; dose 25 μg/animal
Experimental: Female Hartley guinea-pigs of 300-350 g received, in the plantar pad of each of the two rear paws, an emulsion composed of equal parts of incomplete Freund adjuvant and a physiological solution containing ovalbumin (5 mg/guinea-pig) and the preparation to be tested. The incomplete Freund adjuvant (FIA) (that is to say not containing mycobacteria), is the complete adjuvant (FCA) marketed by the DIFCO company were used as controls.
The rates of antibodies with respect to ovalbumin were determined three weeks after injection. The antibody rate is expressed in μg/ml of serum of the antigen-antibody precipitate at the point of equivalents.

[2] = system: Female Hartley guinea-pigs; assay: Delayed hypersensitivity to ovalbumin (cutaneous reaction); type: in vivo, guinea-pig; settings: Table 2, adjuvant dose 25 μg
Experimental: The delayed hypersensitivity to ovalbumin was measured by cutaneous reaction four weeks after injection; it is expressed by the diameter in millimeters of the erythema (E), of the induration (I) or the necrosis (N), forty-eight hours after sub-cutaneous injection of 10 or 100 μg of ovalbumin.

[3] = system: tumor cells (mastocytome); assay: Antitumor effect of peritoneal macrophages activated in vivo; type: cell-based; settings: macrophages of mice injected intraperitoneally with 30 μg, recovered 4 days later, incubated with tumor cells
Experimental: The following test takes advantage of the finding made by several authors that macrophages become cytotoxic with respect to neoplasic cells, when they have previously been activated by immuno-adjuvant substances.
Two groups of three mice were injected intraperitoneally with 30 μg of each of the substances respectively. The mice were sacrificed 4 days later. There macrophages were recovered according to the technique of D. Juy, C. Bona and L. Chedid, C. R. Acad. Sc. Paris, 1974, 268, Serie D, 1859 and incubated in the presence of tumor cells (mastocytome).
The inhibition of the mastocytome increase was measured by reference to the reduced incorporation of radioactive thymidine as compared to that of controls.

mastocytome = assay: Activation of macrophages in vitro (cytotoxicity with respect to the mastocytome); type: cell-based; settings: incubated directly with normal macrophages and with macrophages from an inflammatory peritoneal exsudate (both cases)
Experimental: The activity of the muramyl-dipeptide was measured by directly incubating it with both normal macrophages and macrophages originating from an inflammatory peritoneal exsudate.

guinea pigs = assay: Delayed hypersensitivity with respect to the substances in guinea pigs treated with Freund's complete adjuvant; type: in vivo, guinea pig; settings: 5 and 10 μg in the dermis of guinea pigs, three weeks after ovalbumine with FIA or FCA
Experimental: Three groups of guinea pigs were injected (in their foot pads) with 1 mg of ovalbumine together with:
(a) Freund's incomplete adjuvant (FIA) and
(b) Freund's complete adjuvent (FCA) respectively.
The delayed hypersensitivity was measured by subcutaneous reaction three weeks thereafter, by injecting 5 mg of ovalbumine and of 5 and 10 μg of either the substance BB and the muramyl-dipeptide in the dermis of the animals.

surrenalectomized mice = assay: Toxicity in surrenalectomized mice; type: in vivo; settings: 30 μg dosage

Which results are given for `CC(=O)N[C@@H]1[C@@H](O[C@H](C)C(=O)N[C@@H](C)C(=O)N[C@H](CCC(=O)O)C(N)=O)[C@H](O)[C@@H](CO)O[C@H]1O` [N-acetylmuramyl-L-Ala-D-Glu-NH2, 2-(2-acetamido-2-desoxy-3-O-D-glucopyranosyl)-D-propionyl-L-Ala-(γ-OH)-D-α-Glu NH2]?
Antibody/antiovalbumin, Average [1]: 5210 µg/mL; Antibody/antiovalbumin, animal 1 [1]: 5280 µg/mL; Antibody/antiovalbumin, animal 2 [1]: 6000 µg/mL; Antibody/antiovalbumin, animal 3 [1]: 2960 µg/mL; Antibody/antiovalbumin, animal 4 [1]: 6880 µg/mL; Antibody/antiovalbumin, animal 5 [1]: 4960 µg/mL; Delayed Hypersensitivity, erythema (E) ([2]; 10 μg ovalbumin injection): 9 millimeters; Delayed Hypersensitivity, erythema (E) ([2]; 100 μg ovalbumin injection): 17 millimeters; Inhibition of the mastocytome increase (reduced incorporation of radioactive thymidine compared to controls) [3]: 84%; Increase in vitro of the cytotoxicity of the macrophages with respect to the mastocytome (mastocytome): capable of increasing in vitro the cytotoxicity of the macrophages; Delayed hypersensitivity reaction to the substance (guinea pigs): dit not induce any detectable reaction; Toxicity (surrenalectomized mice): no detectable toxicity
